The values below come from patent US11458123B2 (Arvinas, Inc., priority 2016, dated 2022).

The first assay has as its system tau protein. Put plainly: Tau protein in vitro degradation assay (Western blot, Tau-13 antibody). The format is cell-based, human. The following applies: SK-N-SH cells; 72 hours of incubation; tested at 300 nM, 100 nM, 33 nM and 11 nM; Western blot, Tau-13 antibody. In outline: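 SK-N-SH cells, seeded ≥18 h beforehand, were incubated 72 h with tau PROTACs at 1000, 300 and 100 nM or at 300, 100, 33 and 11 nM. Lysates in protease-inhibitor buffer were resolved by SDS-PAGE; tau quantified by Western blot with Tau-13 antibody recognising all human tau forms.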
Background: A western blot detects proteins with antibodies after separation by electrophoresis.
Take `Cc1ncsc1-c1ccc(CNC(=O)[C@@H]2C[C@@H](O)CN2C(=O)[C@H](C(C)C)N2Cc3ccccc3C2=O)c(OCCOc2ccc(-c3ccc4c(c3)[nH]c3ccncc34)cn2)c1` [Compound 185, (2S,4R)—N-(2-(2-((5-(5H-pyrido[4,3-b]indol-7-yl)pyridin-2-yl)oxy)ethoxy)-4-(4-methylthiazol-5-yl)benzyl)-4-hydroxy-1-((S)-3-methyl-2-(1-oxoisoindolin-2-yl)butanoyl)pyrrolidine-2-carboxamide]: the “Degradation activity (tau protein remaining; highest amount of degradation observed at any dosage)” value was “C (>80% tau protein remaining after 72 hours of incubation with the test compound)”.

`Cn1c2ccncc2c2ccc(-c3ccc(O[C@H]4C[C@H](C(=O)N5CC6(CC(OCCCCOc7ccc8c(c7)C(=O)N(C7CCC(=O)NC7=O)C8=O)C6)C5)C4)nc3)cc21` (stereo partly drawn) [Compound 157, 2-(2,6-dioxopiperidin-3-yl)-5-(4-((2-((1r,3r)-3-((5-(5-methyl-5H-pyrido[4,3-b]indol-7-yl)pyridin-2-yl)oxy)cyclobutane-1-carbonyl)-2-azaspiro[3.3]heptan-6-yl)oxy)butoxy)isoindoline-1,3-dione]: the “Degradation activity* (highest amount of degradation observed at any dosage; tau protein remaining)” value is “C (>80% tau protein remaining after 72 hours of incubation with the test compound)”.

Consider `Cn1c2ccncc2c2ccc(-c3ccc(O[C@H]4C[C@H](OCCOCCOCCOC5CN(c6ccc7c(c6)C(=O)N(C6CCC(=O)NC6=O)C7=O)C5)C4)nc3)cc21` (stereo partly drawn) [Compound 161, 2-(2,6-dioxopiperidin-3-yl)-5-(3-(2-(2-(2-((1r,3r)-3-((5-(5-methyl-5H-pyrido[4,3-b]indol-7-yl)pyridin-2-yl)oxy)cyclobutoxy)ethoxy)ethoxy)ethoxy)azetidin-1-yl)isoindoline-1,3-dione], for which the “Degradation activity* (highest amount of degradation observed at any dosage; tau protein remaining)” value is listed as “C (>80% tau protein remaining after 72 hours of incubation with the test compound)”.

As to `O=C1CCC(N2C(=O)c3ccc(N4CCN(CCN5CCC(O[C@H]6C[C@H](Oc7ccc(-c8ccc9c(c8)[nH]c8ccncc89)cn7)C6)CC5)CC4)cc3C2=O)C(=O)N1` (stereo partly drawn) [Compound 66, 5-(4-(2-(4-((1r,3r)-3-((5-(5H-pyrido[4,3-b]indol-7-yl)pyridin-2-yl)oxy)cyclobutoxy)piperidin-1-yl)ethyl)piperazin-1-yl)-2-(2,6-dioxopiperidin-3-yl)isoindoline-1,3-dione], the “Degradation activity* (highest amount of degradation observed at any dosage; tau protein remaining)” value was “C (>80% tau protein remaining after 72 hours of incubation with the test compound)”.

`Cn1c2ccncc2c2ccc(-c3ccc(O[C@H]4C[C@H](OCCCCCOC(CC5CN(c6ccc7c(c6)C(=O)N(C6CCC(=O)NC6=O)C7=O)C5)C(F)(F)F)C4)nc3)cc21` (stereo partly drawn) [Compound 153, 2-(2,6-dioxopiperidin-3-yl)-5-(3-(3,3,3-trifluoro-2-((5-((1r,3r)-3-((5-(5-methyl-5H-pyrido[4,3-b]indol-7-yl)pyridin-2-yl)oxy)cyclobutoxy)pentyl)oxy)propyl)azetidin-1-yl)isoindoline-1,3-dione]: the “Degradation activity* (highest amount of degradation observed at any dosage; tau protein remaining)” value is “B (≤80% and >50% tau protein remaining after 72 hours of incubation with the test compound)”.

On to `Cn1c2ccncc2c2ccc(-c3ccc(O[C@H]4C[C@H](OCCOc5ccc(OC6CN(c7ccc8c(c7)C(=O)N(C7CCC(=O)NC7=O)C8=O)C6)nc5)C4)nc3)cc21` (stereo partly drawn) [Compound 155, 2-(2,6-dioxopiperidin-3-yl)-5-(3-((5-(2-((1r,3r)-3-((5-(5-methyl-5H-pyrido[4,3-b]indol-7-yl)pyridin-2-yl)oxy)cyclobutoxy)ethoxy)pyridin-2-yl)oxy)azetidin-1-yl)isoindoline-1,3-dione], for which the “Degradation activity* (highest amount of degradation observed at any dosage; tau protein remaining)” value is listed as “C (>80% tau protein remaining after 72 hours of incubation with the test compound)”.

Consider `Cn1c2ccncc2c2ccc(-c3ccc(O[C@H]4C[C@H](Oc5ccc(CCCCCCOc6ccc7c(c6)C(=O)N(C6CCC(=O)NC6=O)C7=O)cc5)C4)nc3)cc21` (stereo partly drawn) [Compound 147, 2-(2,6-dioxopiperidin-3-yl)-5-((6-(4-((1r,3r)-3-((5-(5-methyl-5H-pyrido[4,3-b]indol-7-yl)pyridin-2-yl)oxy)cyclobutoxy)phenyl)hexyl)oxy)isoindoline-1,3-dione], for which the “Degradation activity* (highest amount of degradation observed at any dosage; tau protein remaining)” value is “C (>80% tau protein remaining after 72 hours of incubation with the test compound)”.

For `Cn1c2ccncc2c2ccc(-c3ccc(OCCOCCOCCOCCCCC(Oc4ccc5c(c4)C(=O)N(C4CCC(=O)NC4=O)C5=O)C(F)(F)F)nc3)cc21` (stereo not drawn) [Compound 129, 2-(2,6-dioxopiperidin-3-yl)-5-((1,1,1-trifluoro-6-(2-(2-(2-((5-(5-methyl-5H-pyrido[4,3-b]indol-7-yl)pyridin-2-yl)oxy)ethoxy)ethoxy)ethoxy)hexan-2-yl)oxy)isoindoline-1,3-dione], the “Degradation activity* (highest amount of degradation observed at any dosage; tau protein remaining)” value is reported as “C (>80% tau protein remaining after 72 hours of incubation with the test compound)”.

As for `Cn1c2ccncc2c2ccc(-c3ccc(N4CC(OCCOCCOCCOCCOc5ccc6c(c5)C(=O)N(C5CCC(=O)NC5=O)C6=O)C4)nc3)cc21` (stereo not drawn) [Compound 208, 2-(2,6-dioxopiperidin-3-yl)-5-(2-(2-(2-(2-((1-(5-(5-methyl-5H-pyrido[4,3-b]indol-7-yl)pyridin-2-yl)azetidin-3-yl)oxy)ethoxy)ethoxy)ethoxy)ethoxy)isoindoline-1,3-dione], the “Degradation activity (tau protein remaining; highest amount of degradation observed at any dosage)” value is “A (≤50% tau protein remaining after 72 hours of incubation with the test compound)”.

With `Cn1c2ccncc2c2ccc(-c3cnc(OCCOCCOCCOCCOCCOc4ccc5c(c4)C(=O)N(C4CCC(=O)NC4=O)C5=O)cc3C(F)(F)F)cc21` (stereo not drawn) [Compound 69, 2-(2,6-dioxopiperidin-3-yl)-5-((14-((5-(5-methyl-5H-pyrido[4,3-b]indol-7-yl)-4-(trifluoromethyl)pyridin-2-yl)oxy)-3,6,9,12-tetraoxatetradecyl)oxy)isoindoline-1,3-dione], the “Degradation activity* (highest amount of degradation observed at any dosage; tau protein remaining)” value is listed as “A (≤50% tau protein remaining after 72 hours of incubation with the test compound)”.

As for `Cn1c2ccncc2c2ccc(-c3ccc(OC4CC5(C4)CN(CCOCCCOC4CN(c6ccc7c(c6)C(=O)N(C6CCC(=O)NC6=O)C7=O)C4)C5)nc3)cc21` (stereo not drawn) [Compound 211, 2-(2,6-dioxopiperidin-3-yl)-5-(3-(3-(2-(6-((5-(5-methyl-5H-pyrido[4,3-b]indol-7-yl)pyridin-2-yl)oxy)-2-azaspiro[3.3]heptan-2-yl)ethoxy)propoxy)azetidin-1-yl)isoindoline-1,3-dione], the “Degradation activity (tau protein remaining; highest amount of degradation observed at any dosage)” value is listed as “C (>80% tau protein remaining after 72 hours of incubation with the test compound)”.

Staying with this assay, now noted: SK-N-SH cells; 72 hours of incubation; tested at 1000 nM, 300 nM and 100 nM.
For `Cc1ncoc1-c1ccc([C@H](C)NC(=O)[C@@H]2C[C@@H](O)CN2C(=O)[C@@H](NC(=O)COCCOCCOCCN2CCN(c3ccn4c(n3)nc3ccccc34)CC2)C(C)(C)C)cc1` [Compound 19, (2S,4R)-1-((S)-14-(4-(benzo[4,5]imidazo[1,2-a]pyrimidin-2-yl)piperazin-1-yl)-2-(tert-butyl)-4-oxo-6,9,12-trioxa-3-azatetradecanoyl)-4-hydroxy-N—((S)-1-(4-(4-methyloxazol-5-yl)phenyl)ethyl)pyrrolidine-2-carboxamide], the “Activity* (highest amount of degradation observed at any dosage, as tau protein remaining)” value is “C (>80% tau protein remaining after 72 hours of incubation with the test compound)”.
